Experimental data published in patent US20230241037A1, “CROSS-LINKED MEDICATION FOR TREATMENT OF CORONAVIRAL INFECTION AND METHOD OF TREATMENT” (1GLOBE HEALTH INSTITUTE, NANJING, priority 2020, published 2023).

Assays:
[1] = Standard CCK-8 cytotoxicity assay; format: cell-based; settings: African green monkey, Vero E6 cells, 48 hours incubation
Description: Vero E6 African green monkey kidney cell line was obtained from American Type Culture Collection (ATCC, No. 1586) and maintained in MEM medium (MEM; Gibco Invitrogen) supplemented with 10% fetal bovine serum (FBS; Gibco Invitrogen) at 37° C. in an atmosphere of 5% CO2.
Standard CCK-8 assays were performed to measure the cytotoxic effect of the drug candidates on Vero E6 cells, which was performed in accordance with the manufacturer's instructions (Beyotime, China).

[2] = tested on: SARS-CoV-2; test: microbe, parasite or virus in culture; format: cell-based; settings: for EC50: Severe acute respiratory syndrome coronavirus 2, Vero C1008, Vero E6 cells, MOI 0.05, 1 hour pretreatment, viral RNA in supernatant 48 hours post infection; for SI (selectivity index): from the CC50 and EC50 values in Vero E6 cells

For `CC(=O)Oc1ccccc1C(=O)Nc1ncc([N+](=O)[O-])s1` [NTZ, o-[N-(5-nitro-1,3-thiazol-2-yl)carbamoyl]phenol acetate)], the CC50 at 48 h [1] was 36.8 µM, the EC50 [2] was 2.1 µM and the “SI (selectivity index)” value [2] was 17.5.
For `NC(=O)c1ncn([C@@H]2O[C@H](CO)[C@@H](O)[C@H]2O)n1` [RBV, 1-[(2R, 3R, 4S, 5R)-3,4-dihydroxy-5-(hydroxymethyl)oxolan-2-yl]-1H-1,2,4-triazole-3-carboxamide], the CC50 at 48 h [1] was over 400 µM, the EC50 [2] was 109 µM and the “SI (selectivity index)” value [2] was over 3.7.
